Measurements reported in ChEMBL document CHEMBL1122322, “Synthesis and antileishmanial activity of 6-methoxy-4-methyl-N-[6-(substituted-1-piperazinyl)hexyl]-8-quinolinamines and related compounds” (1983).
The source made the active and inactive calls. No cut-off for these calls is given here.

How the values were obtained:
Leishmania donovani [1] = test: Antileishmanial activity against Leishmania donovani infections in hamsters (at 52 mg/kg).; format: functional
Leishmania donovani [2] = test: Glucantime (meglumine antimoniate) index (G index) against Leishmania donovani infections in hamsters.; format: functional
Leishmania donovani [3] = test: Antileishmanial activity against Leishmania donovani infections in hamsters (at 13 mg/kg).; format: functional
Leishmania donovani [4] = test: (§1) Antileishmanial activity against Leishmania donovani infections in hamsters (208 mg/kg); format: functional
Leishmania donovani [5] = test: Antileishmanial activity against Leishmania donovani infections in hamsters (3.25 mg/kg); format: functional
Leishmania donovani [6] = test: as §1; format: functional, organism-based
Leishmania donovani [7] = test: Antileishmanial activity against Leishmania donovani infections in hamsters (0.81 mg/kg); format: functional
Leishmania donovani [8] = test: Antileishmanial activity against Leishmania donovani infections in hamsters (208 mg/kg): Inactive; format: functional, organism-based
Leishmania donovani [9] = test: Antileishmanial activity against Leishmania donovani infections in hamsters (0.2 mg/kg); format: functional
Leishmania donovani [10] = test: Antileishmanial activity against Leishmania donovani infections in hamsters (0.05 mg/kg); format: functional
Leishmania donovani [11] = test: Antileishmanial activity against Leishmania donovani infections in hamsters (3.25 mg/kg); NA means inactive; format: functional, organism-based
Leishmania donovani [12] = test: Antileishmanial activity against Leishmania donovani infections in hamsters (104 mg/kg); format: functional, organism-based

Molecule | Suppression (Leishmania donovani [1]) [%] | G index (Leishmania donovani [2]) | Suppression (Leishmania donovani [3]) [%] | Suppression (Leishmania donovani [5]) [%] | Suppression (Leishmania donovani [6]) | Suppression (Leishmania donovani [7]) [%] | further results
CCC(CC)C(=O)N1CCN(CCCCCCNc2cc(OC)cc3c(C)ccnc23)CC1.Cl | 99.3 | 2.6 | 56.6 |  |  |  | Suppression (Leishmania donovani [4]): 98.6%
CCN(CC)CC(O)CN1CCN(CCCCCCNc2cc(OC)cc3c(C)ccnc23)CC1.Cl (centres undefined) | 99.9 | 6 | 99.7 | 32.6 | Toxic |  | 
COc1cc(NCCCCCCN2CCN(C(c3ccccc3)c3ccc(Cl)cc3)CC2)c2nccc(C)c2c1.Cl.Cl (centres undefined) | 96.8 | 23 | 99.4 | 100 | Toxic | 70 | 
CCCCCCCCCCCCN1CCN(CCCCCCNc2cc(OC)cc3c(C)ccnc23)CC1 |  |  |  |  |  |  | Suppression (Leishmania donovani [8]): inactive
CCNC(=O)N1CCN(CCCCCCNc2cc(OC)cc3c(C)ccnc23)CC1.Cl | 100 | 9 | 99.2 | 84.1 | Toxic | 35.9 | 
COc1cc(NCCCCCCN2CCN(CCOC(c3ccccc3)c3ccccc3)CC2)c2nccc(C)c2c1.Cl | 99.5 | 5 | 83.5 |  |  |  | Suppression (Leishmania donovani [4]): 100%
COc1cc(NCCCCCCN2CCN(CCCCCCNc3cc(OC)cc4c(C)ccnc34)CC2)c2nccc(C)c2c1 |  |  |  |  |  |  | Suppression (Leishmania donovani [8]): inactive
COc1cc(NCCCCCCNC(C)C)c2nc(C)cc(C)c2c1.Cl |  | 42 |  |  |  |  | 
COc1cc(NCCCCCCN2CC(C)NC(C)C2)c2nccc(C)c2c1 (centres undefined) | 100 | 72 | 100 | 99.8 | Toxic | 97.9 | Suppression (Leishmania donovani [9]): 1.3%
COc1cc(NCCCCCCN2C[C@H](C)S[C@@H](C)C2)c2nccc(C)c2c1 | 65 | 0.4 | 21.4 |  |  |  | Suppression (Leishmania donovani [4]): 98.2%
COc1cc(NCCCCCCN2CCSCC2)c2nccc(C)c2c1.Cl | 100 | 6.4 | 99.8 | 59.9 | Toxic | 27.61 | 
COc1cc(NCCCCCCN2CCN(CCC(C)C)CC2C)c2nccc(C)c2c1.Cl (centres undefined) | 99.8 | 72 | 98.9 | 100 | Toxic | 96.6 | Suppression (Leishmania donovani [9]): 57.3%
CCS(=O)(=O)CCN1CCN(CCCCCCNc2cc(OC)cc3c(C)ccnc23)CC1 | 99.5 | 19 | 99.7 | 99.6 |  | 21.1 | Suppression (Leishmania donovani [4]): 99.9%
COc1cc(NCCCCCCN2CCN(CCCN(C)C)CC2)c2nccc(C)c2c1.Cl | 99.7 | 2 | 65.8 |  | Toxic |  | 
COc1cc(NCCCCCCN2CCN(CCCO)CC2)c2nccc(C)c2c1 | 97.8 | 38 | 96.3 |  | Toxic |  | 
CCC(C)NCCCCCCNc1cc(OC)cc2c(C)cc(C)nc12.Cl (centres undefined) |  | 28 |  |  |  |  | 
COc1cc(NCCCCCCN2CCN(C3CCCCC3)CC2)c2nccc(C)c2c1 |  |  |  |  |  |  | Suppression (Leishmania donovani [8]): inactive
CCN(CC)C(=O)N1CCN(CCCCCCNc2cc(OC)cc3c(C)ccnc23)CC1.Cl | 98.6 | 8 | 98.8 | 72.2 | Toxic |  | 
CCN(CC)CCCCCCNc1cc(OC)c(Oc2cccc(C(F)(F)F)c2)c2c(C)ccnc12 | 100 |  | 99.6 |  | Toxic |  | 
COc1cc(NCCCCCCN2CCN(C(=O)N(c3ccccc3)c3ccccc3)CC2)c2nccc(C)c2c1 |  |  |  |  |  |  | Suppression (Leishmania donovani [8]): inactive
COc1cc(NCCCCCCN2CCN(CC(C)O)CC2)c2nccc(C)c2c1.Cl (centres undefined) | 99.7 | 143 | 99.1 | 99.4 | Toxic | 99.8 | Suppression (Leishmania donovani [10]): 35%; Suppression (Leishmania donovani [9]): 75.7%
COc1cc(NCCCCCCN2CCCN(C)CC2)c2nccc(C)c2c1 | 99.4 | 12 | 99.8 | 91.2 |  | 61 | Suppression (Leishmania donovani [4]): 98.6%

Molecule | Suppression (Leishmania donovani [1]) [%] | G index (Leishmania donovani [2]) | Suppression (Leishmania donovani [3]) [%] | Suppression (Leishmania donovani [5]) [%] | Suppression (Leishmania donovani [6]) | Suppression (Leishmania donovani [7]) [%] | further results
CC/N=C(\S)N1CCN(CCCCCCNc2cc(OC)cc3c(C)ccnc23)CC1.Cl |  | 2 |  |  |  |  | 
COc1cc(NCCCCCCN2CCS(=O)(=O)CC2)c2nccc(C)c2c1 | 67.6 | 0.5 | 35 |  |  |  | Suppression (Leishmania donovani [4]): 100%
COc1cc(NCCCCCCN2CC(C)OC(C)C2)c2nccc(C)c2c1.Cl (centres undefined) | 99.1 | 24 | 99.1 | 98.7 | Toxic | 61 | 
CCN(CC)CCCCCCNc1cc(OC)cc2c(C)cc(C)nc12.Cl |  | 32 |  |  |  |  | 
CCN(CC)CCCCCCNc1cc(OC)cc2c(C)ccnc12 [SITAMAQUINE] | 100 | 474 | 100 |  | Toxic | 100 | Suppression (Leishmania donovani [10]): 83.7%; Suppression (Leishmania donovani [9]): 99.6%
COc1cc(NCCCCCCN2CCN(c3ccccn3)CC2)c2nccc(C)c2c1 | 97.8 | 5 | 95.9 | 24.4 |  | 18.9 | Suppression (Leishmania donovani [4]): 97.5%
COc1cc(NCCCCCCN2CCN(c3ccc(Cl)c(Cl)c3)CC2)c2nccc(C)c2c1 |  | <1 |  |  |  |  | Suppression (Leishmania donovani [4]): 77.8%
COc1cc(NCCCCCCN2CCNc3ccccc32)c2nccc(C)c2c1 |  |  |  |  |  |  | Suppression (Leishmania donovani [8]): inactive
CCCN(CCC)C(=O)N1CCN(CCCCCCNc2cc(OC)cc3c(C)ccnc23)CC1.Cl | 99.4 | 6 | 89.7 |  |  |  | Suppression (Leishmania donovani [4]): 100%
CCOC(=O)N1CCN(CCCCCCNc2cc(OC)cc3c(C)ccnc23)CC1 | 99.9 | 33 | 99.9 | 99.1 |  | 23.9 | Suppression (Leishmania donovani [4]): 99.5%
MEGLUMINE ANTIMONATE |  | 1 | 42 |  |  |  | NA (Leishmania donovani [11]): inactive; Suppression (Leishmania donovani [12]): 91.3%
COc1cc(NCCCCCCN2CCN(C(=O)OCc3ccccc3)CC2)c2nccc(C)c2c1.Cl | 98 | 2.3 | 54.6 |  | Toxic |  | 
COc1cc(NCCCCCCN2CCN(CC(O)CO)CC2)c2nccc(C)c2c1.Cl (centres undefined) | 99.9 | 57 | 100 | 99.98 | Toxic | 98.5 | Suppression (Leishmania donovani [9]): 25.8%
COc1cc(NCCCCCCNC(C)C)c2nccc(C)c2c1Oc1cccc(C(F)(F)F)c1 |  |  | 98.6 |  | Toxic |  | 
COc1cc(NCCCCCCN2CCN(C)CC2)c2nccc(C)c2c1.Cl | 100 | 26 | 99.7 | 99.3 |  | 64.7 | Suppression (Leishmania donovani [4]): 99.7%
CCS(=O)(=O)N1CCN(CCCCCCNc2cc(OC)cc3c(C)ccnc23)CC1 | 99.8 | 4 | 94.8 |  |  |  | Suppression (Leishmania donovani [4]): 99.9%
COc1cc(NCCCCCCN2CCN(CCO)CC2)c2nccc(C)c2c1Oc1cccc(C(F)(F)F)c1.Cl | 99.1 |  | 98 |  | Toxic |  | 
COc1cc(NCCCCCCN2CCN(S(=O)(=O)c3ccccc3)c3ccccc32)c2nccc(C)c2c1 |  |  |  |  |  |  | Suppression (Leishmania donovani [8]): inactive
COc1cc(NCCCCCCN2CC[S+]([O-])CC2)c2nccc(C)c2c1.Cl | 92.8 | 3 | 84.8 |  | Toxic |  | 
COc1cc(NCCCCCCN2CCN(C(=O)N3CCCC3)CC2)c2nccc(C)c2c1.Cl | 99.8 | 2.3 | 100 | 98.8 |  | 4.6 | Suppression (Leishmania donovani [4]): 100%
COc1cc(NCCCCCCN2C[C@@H](C)S[C@@H](C)C2)c2nccc(C)c2c1 | 93.7 | 1.5 | 81.1 |  | Toxic |  | 
COc1cc(NCCCCCCN2CCN(CCO)CC2)c2nccc(C)c2c1.Cl | 100 | 104 | 100 | 97 |  | 85.8 | 
